Patent publication US20120295838A1, “Selective poly-substituted glycine antibiotics and related compositions” (priority 2008, published 2012)
Read-outs that look alike come from different tables or passages of the source. Values belong to the molecule of their own block, whether it stands above or below them. Square brackets hold non-standard residues; d marks the D form. Peptide text beside a SMILES is read from it. Nspe = C[C@H](NCC(=O)O)c1ccccc1; Nlys = NCCCCNCC(=O)O

Assays:
MTS assay, NIH 3T3 cells = type: cell-based, mouse; conditions: mouse, NIH 3T3 fibroblast cells
Description: (§1) The potencies of all compounds were determined against representative Gram-negative (E. coli ATCC 35218) and Gram-positive (B. subtilis ATCC 6633) biosafety level 1 (BSL1) organisms. In addition to hemolytic activity, the conventional measure of toxicity to mammalian cells, the effect of each ampetoid on NIH 3T3 mouse fibroblast cells was determined using the MTS tetrazolium salt-based colorimetric assay. While hemolysis measures the degree to which erythrocytes are lysed, the MTS assay indirectly quantifies the extent to which cellular metabolic activity is inhibited.
(§2) MTS assays. NIH/3T3 cells (ATCC Corporation) cultured at 37° C. and 5% CO2 in complete Dulbecco's modified eagle's media (CDMEM) supplemented with 1% sodium pyruvate, 1% penicillin-streptomycin, 1.5 g/L NaHCO3, and 10% fetal bovine serum. Cells were seeded at a density of 5,000 cells per well for NIH/3T3 cells in 96-well plates (100 μl total volume). A peptoid solution plate (100 μL total volume per well) was prepared by serial dilution of aqueous peptoid stock solution in Hank's balanced salt solution (HBSS) media. The day-old cell monolayers were washed with HBSS and media was replaced with 100 μL HBSS. The contents of the peptoid solution plate were transferred onto corresponding wells of the cell monolayer plate, and 40 μL MTS reagent (Promega, Inc.) was added to each well. After incubating for 3 hours at 37° C., absorbance at 490 nm was determined. […] The average of six replicates is reported.

human erythrocytes = experiment: Hemolysis assay; type: cell-based
Description: (§3) Hemolysis assays. Erythrocytes were isolated from freshly drawn, heparanized human blood and resuspended to 20 vol % in PBS (pH 7.4). In a 96-well microtiter plate, 100 μL erythrocyte suspension was added to 100 uL peptoid solution in PBS (prepared by 1:2 serial dilutions), or 100 μL PBS in the case of negative controls. 100% hemolysis wells contained 100 μL, blood cell suspension with 100 μL 0.2 vol % Triton X-100. The plate was incubated for 1 h at 37° C., then each well was diluted with 1504 PBS. The plate was then centrifuged at 1200 g for 15 min, 100 μL of the supernatant from each well transferred to a fresh microtiter plate, and A350 measured.
Hemolysis assays. Erythrocytes were isolated from freshly drawn, heparanized human blood and resuspended in PBS (pH 7.4) to make a 20% volume suspension. Peptoid solutions were prepared by serial dilution (2:1) in a 96-well microtiter plate. For test wells, 100 μLL of erythrocyte suspension was added to 100 μL of peptoid solution in PBS; PBS without peptoid was used as the negative control and 0.2 vol % Triton X-100 as the positive control that indicates 100% hemolysis. After 1 hour incubation at 37° C., each well was diluted with 150 μL PBS. Plates were then centrifuged at 1,200×g for 15 minutes to pellet the cells. 30 μL of the supernatant from each well were transferred to the corresponding well of a second 96-well plate that contains 70 μL PBS.
as §3, with “assays for Compositions.” for “assays.”, “100” for “100 uL”, “μL” for “μL,”, “150 μL” for “1504”, “1200g” for “1200 g”

E. coli ATCC 35218 = type: cell-based
Description: (§4) Whereas the preceding generation of molecules was designed to elucidate structure function relationships of specific molecular parameters (chirality, length, hydrophobicity, etc.), another generation compounds were designed explicitly to explore effects on selectivity. Antimicrobial activity of these compounds was tested against bacterial strains E. coli (ATTC 35218) and B. subtilis (ATTC 6633) in cation-adjusted MHB using the microdilution protocols previously described. The sequences, antimicrobial activities, hemolytic activities, and metabolic inhibitory concentrations against NIH 3T3 mouse fibroblast cells are summarized in Table 3 and the rationale of their design is described below.
(§5) Screening antibacterial assays. MICs were determined in 96-well microtiter plates in accordance with CLSI M7-A6 protocols. Peptoid solutions with 50 μL total volume were prepared using 2:1 serial dilutions. 50 i—tL of bacteria inoculum (1×10^6 CFU/mL) prepared in cation-adjusted Mueller-Hinton broth (CAMHB) was added to test wells. Control wells contained 100 μL MHB (no growth) or 50 μL inoculums with 50 μL MHB with no peptoid. […] Reported values were reproducible over three experiments, each containing two parallel trials.
(§6) Antibacterial Assays for Compositions. MICs were determined according to CLSI M7-A6 protocols in a 96-well microtiter plate. In test wells, 50 μL bacterial inoculum (1×10^6 CFU/ml) in cation-adjusted Mueller-Hinton broth (CAMHB) was added to 50 μL peptoid solution in CAMHB (prepared by 1:2 serial dilutions). Positive controls contained 50 μL inoculum and 50 μL CAMHB without peptoid. […] MIC values reported were reproducible between three independent experimental replicates, each consisting of two parallel trials.

B. subtilis ATCC 6633 = type: cell-based
Description: as §4, §5, §6

[1] = test system: NIH 3T3 mouse fibroblast cells; experiment: MTS assay, NIH 3T3 cells; type: cell-based
Description: as §1, §2

[2] = RP-HPLC solvent composition at elution as measure of molecular hydrophobicity; type: physicochemical; conditions: Table 8; gradient 5 to 95% ACN over 45 min, C18 column, 0.2 ml/min; average of three replicates
Excerpt: An initial set of 15 ampetoid analogs was synthesized to determine whether peptoids are affected by structural and sequence modifications in a manner consistent with AMP activities. The designs for ampetoids in this library were derived from two antibacterial and selective amphipathic dodecamers, 1 and 2. Peptoid 1 [H-(Nlys-Nspe-Nspe)4-NH2] is composed of 2/3 Nspe, the peptoid analog of phenylalanine, and 1/3 Mys, the peptoid analog of lysine (see FIG. 1 for the structures of representative peptoid monomers and corresponding N-substituents). Peptoid 2 [H-(Mys-Nssb-Nspe)4-NH2] contains 1/3 isoleucine-like Nssb monomers in place of Nspe. The variant sequences were designed to effect changes in chirality, length, hydrophobicity, charge, and amphipathicity. All of these compounds were tested for antibacterial activity against representative BSL1 Gram-negative (E. coli JM109) and Gram-positive (B. subtilis BR151) bacterial strains. As an initial measure of selectivity, the lytic activity of the peptoids was determined against human erythrocytes. Table 1 summarizes the sequences synthesized, the solvent composition at RP-HPLC elution as a relative measure of molecular hydrophobicity, and antibacterial and hemolytic activities.
Following synthesis, peptoid oligomers can be cleaved from the resin, simultaneously removing the tert-butoxycarbonyl (Boc) protecting group from Mys residues, by treatment with 10 ml 2,2,2-trifluoroacetic acid (TFA)/triisopropylsilane/H2O (95:2.5:2.5 by volume) for 30 min. The cleavage mixture is then diluted with 25 ml 50% aqueous acetonitrile, frozen, and lyophilized. Dilution and lyophilization is repeated twice more in order to remove excess TFA. Subsequent to cleavage, peptoids are each purified to >97% homogeneity by preparative scale reversed-phase HPLC using a Waters Prep LC 4000 system, with Waters 2487 dual-wavelength UV detection, and gradient elution (solvent A, 0.1 vol % trifluoroacetic acid (TFA) in water; solvent B, 0.1 vol % TFA in acetonitrile) through a Vydac (Hysperia, Calif.) 214TP101550 C4 peptide/protein column (10-15 μm, 300 Å, 5×25 cm). Following prep HPLC, peptoid purities and crude yields were determined from analytical scale HPLC, performed with a Waters 2695 Separations Module with a Waters 2487 dual-wavelength UV detector and gradient elution (solvent A, 0.1 vol % TFA in water; solvent B, 0.1 vol % TFA in acetonitrile) through a Vydac C4 214TP53 peptide/protein column (5 μm, 300 Å, 3.2×250 mm). The precise gradient employed for HPLC depended on the identity and hydrophobicity of the oligomer in question. All analytical HPLC was performed at 0.5 ml/min flow and 58° C. Preparative HPLC was performed at 50 ml/min flow and room temperature.
Compound synthesis and purification. Peptoids were synthesized using an ABI 433A peptide synthesizer (Applied Biosystems, Inc.) on Rink amide MBHA resin (Novabiochem, Inc.) using the submonomer approach^3. Briefly, bromoacetic acid, activated by diisopropylcarbodiimide was used to form a bromocetylated intermediate on the terminal amide group. Bromide was then substituted with the desired primary amine through SN2 displacement to build the peptoid chain. The amines used in peptoid synthesis include benzylamine, octadecylamine, (s)-(+)-2-amino-3-methylbutane, (s)-α-methylbenzylamine, (r)-(α-methylbenzylamine (all purchased from Sigma-Aldrich), and N-tert-butoxycarbonyl-1,4 diaminobutane (Mys) that was made using a published procedure^83. Resin-bound peptoids were then exposed to a mixture of trifluoroacetic acid (TFA): triisopropylsilane:water (95:2.5:2.5, v:v:v) for ten minutes to cleave peptoids from the solid phase. Peptoids were purified by reversed-phase HPLC (RP-HPLC) (Waters Corporation) using a C18 column and a linear acetonitrile/water gradient. A final purity greater than 97% as measured by analytical RP-HPLC (Waters Corporation) was achieved, and the identity of each molecule was checked using electrospray ionization mass spectrometry. […]

E. coli MIC (E. coli ATCC 35218; ATCC 35218): 50 µM
MIC for E. coli ATCC 35218 (E. coli ATCC 35218; ATCC 35218): 30 µM
MIC for B. subtilis ATCC 6633 (B. subtilis ATCC 6633; ATCC 6633): 0.78 µM
Compound: C[C@@H](c1ccccc1)N(CC(N)=O)C(=O)CN(CCCCN)C(=O)CN(CCCCN)C(=O)CN(C(=O)CN(C(=O)CN(CCCCN)C(=O)CN(C(=O)CN(CCCCN)C(=O)CN(CCCCN)C(=O)CN(C(=O)CN(C(=O)CNCCCCN)[C@@H](C)c1ccccc1)[C@@H](C)c1ccccc1)[C@@H](C)c1ccccc1)[C@@H](C)c1ccccc1)[C@@H](C)c1ccccc1 [1-Nlys5,11, H-(Nlys-Nspe-Nspe-Nlys-Nlys-Nspe)2-NH2] (H-[Nlys][Nspe][Nspe][Nlys][Nlys][Nspe][Nlys][Nspe][Nspe][Nlys][Nlys][Nspe]-NH2)
CC50 at 3 h (MTS assay, NIH 3T3 cells): 85 µM
HD10 (human erythrocytes): >200/>200 μM
HD50 (human erythrocytes): >200/>200 μM

Compound: C[C@@H](c1ccccc1)N(CC(N)=O)C(=O)CN(C(=O)CN(CCCCN)C(=O)CN(Cc1ccccc1)C(=O)CN(Cc1ccccc1)C(=O)CN(CCCCN)C(=O)CN(C(=O)CN(C(=O)CN(CCCCN)C(=O)CN(Cc1ccccc1)C(=O)CN(Cc1ccccc1)C(=O)CNCCCCN)[C@@H](C)c1ccccc1)[C@@H](C)c1ccccc1)[C@@H](C)c1ccccc1 [1-Npm2,3,8,9, H-(Nlys-Npm-Npm-Nlys-Nspe-Nspe)2-NH2]
ID50 [1]: 15 µM
CC50 at 3 h (MTS assay, NIH 3T3 cells): 15 µM
E. coli MIC (E. coli ATCC 35218; ATCC 35218): 6.3 µM

E. coli MIC (E. coli ATCC 35218; Table 6, E. coli ATCC 35218): 25 µM
B. subtilis MIC (B. subtilis ATCC 6633; Table 6, B. subtilis ATCC 6633): 0.78 µM
Compound: CC(C)[C@H](C)N(CC(N)=O)C(=O)CN(C(=O)CN(CCCCN)C(=O)CN(C(=O)CN(C(=O)CN(CCCCN)C(=O)CN(C(=O)CN(C(=O)CN(CCCCN)C(=O)CN(C(=O)CN(C(=O)CNCCCCN)[C@@H](C)C(C)C)[C@@H](C)C(C)C)[C@@H](C)C(C)C)[C@@H](C)C(C)C)[C@@H](C)C(C)C)[C@@H](C)C(C)C)[C@@H](C)C(C)C [1-Nsdpall, H-(Nlys-Nsdp-Nsdp)4-NH2]
CC50 at 3 h (MTS assay, NIH 3T3 cells): 64 µM
Selectivity ratio SR E. coli (E. coli ATCC 35218; Table 6, ratio of 10% hemolytic dose to E. coli MIC): > 8
Selectivity ratio SR B. subtilis (B. subtilis ATCC 6633; Table 6, ratio of 10% hemolytic dose to B. subtilis MIC): 256

Compound: C[C@@H](c1ccccc1)N(CC(N)=O)C(=O)CN(C(=O)CN(CCCCN)C(=O)[C@@H]1CCCN1C(=O)CN(C(=O)CN(CCCCN)C(=O)CN(C(=O)CN(C(=O)CN(CCCCN)C(=O)CN(C(=O)CN(C(=O)CNCCCCN)[C@@H](C)c1ccccc1)[C@@H](C)c1ccccc1)[C@@H](C)c1ccccc1)[C@@H](C)c1ccccc1)[C@@H](C)c1ccccc1)[C@@H](C)c1ccccc1 [1-Pro9, H-(Nlys-Nspe-Nspe)2-Nlys-Nspe-L-Pro-Nlys-Nspe-Nspe-NH2] (H-[Nlys][Nspe][Nspe][Nlys][Nspe][Nspe][Nlys][Nspe]P[Nlys][Nspe][Nspe]-NH2)
ID50 [1]: 24 µM
CC50 at 3 h (MTS assay, NIH 3T3 cells): 24 µM
E. coli MIC (E. coli ATCC 35218; ATCC 35218): 12.5 µM

Compound: CC[C@H](C)[C@H](NC(=O)CN)C(=O)NCC(=O)N[C@@H](C)C(=O)N[C@H](C(=O)N[C@@H](CC(C)C)C(=O)N[C@@H](CCCCN)C(=O)N[C@H](C(=O)N[C@@H](CC(C)C)C(=O)N[C@H](C(=O)N[C@H](C(=O)NCC(=O)N[C@@H](CC(C)C)C(=O)N1CCC[C@H]1C(=O)N[C@@H](C)C(=O)N[C@@H](CC(C)C)C(=O)N[C@H](C(=O)N[C@@H](CO)C(=O)N[C@@H](Cc1c[nH]c2ccccc12)C(=O)N[C@H](C(=O)N[C@@H](CCCCN)C(=O)N[C@@H](CCCNC(=N)N)C(=O)N[C@@H](CCCCN)C(=O)N[C@@H](CCCNC(=N)N)C(=O)N[C@@H](CCC(N)=O)C(=O)N[C@@H](CCC(N)=O)C(N)=O)[C@@H](C)CC)[C@@H](C)CC)[C@@H](C)O)[C@@H](C)O)C(C)C)C(C)C [melittin, reference compound]
% ACN at RP-HPLC elution [2]: 65.2 % ACN
HD50 (human erythrocytes; Table 8): 6 µM
MIC for E. coli ATCC 35218 (E. coli ATCC 35218; Table 8, CAMHB): 12.5 µM
SR (E. coli ATCC 35218; Table 8, calculated as HD10/E. coli MIC): 0.16
